Source: patent US20230242544A1, “QUINAZOLINE COMPOUNDS, PREPARATION METHODS AND USES THEREOF” (INVENTISBIO CO., LTD., priority 2020, published 2023)
pKd: −log10 of the molar value.

What was measured:
Ba/F3_KRAS^G12D cells = Ba/F3_KRAS^G12D cells (Homo sapiens, UniProt P01116, G12D, cells depend on it); assay: Ba/F3 KRAS G12D cell proliferation assay (CellTiter-Glo); type: cell-based; settings: treated for 3 days, cell-titer Glo, cell growth inhibition, read-out: BaF3_KRAS^G12D IC50
Method: Ba/F3_KRAS^G12D cells (KYinno, China) were generated by transducing Ba/F3 parental cells with the recombinant KRAS^G12D lentivirus and followed by 1 ug/mL of puromycin selection and IL3 depletion. […] Cells were seeded at a density of 5×10^3 per well into 96-well plate and incubated overnight. Serial diluted compounds were added to each well. Cells were treated with the compounds for 3 days, after which cell-titer Glo reagent (Promega #G7572) was used to assess cell proliferation. The luminescence signal was then collected on Tecan Spark plate reader. […] Cell growth inhibition of IC50 is calculated with the equation of Y=Bottom+(Top−Bottom)/(1+10^((Log IC50−X)*Hill Slope))

[1] = biological target: recombinant human KRAS^G12D protein (Homo sapiens, UniProt P01116, G12D); assay: Temperature-dependent Fluorescence (TdF) KRAS G12D protein binding assay; settings: 6 μM KRAS^G12D protein, 10 μM compound, Sypro Orange; Kd calculated from the fluorescent shift
Chain of recombinant human KRAS^G12D protein (P01116 1-188 isoform P01116-2 G12D): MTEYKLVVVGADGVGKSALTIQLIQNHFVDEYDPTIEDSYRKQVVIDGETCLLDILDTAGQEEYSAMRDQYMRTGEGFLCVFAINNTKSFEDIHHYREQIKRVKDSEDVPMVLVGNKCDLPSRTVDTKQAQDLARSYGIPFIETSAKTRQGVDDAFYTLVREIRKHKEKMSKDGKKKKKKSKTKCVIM
Method: The Temperature-dependent Fluorescence (TdF) assay was used to analyze binding affinity of compound to recombinant human KRAS^G12D protein. The TdF assay was conducted in the 96-well-based real-time fluorescence plate reader (ABI 7500 or Roche LightCycler 480). Fluorescent dye Sypro Orange (Sigma) was used to monitor the protein folding-unfolding transition. Protein-compound binding was gauged by the shift in the unfolding transition temperature (ΔTm) acquired with and without compound. Each reaction sample consists of 6 μM KRAS^G12D Protein, 10 μM compound, and Sypro Orange dye (in 1% DMSO) in 20 μL reaction buffer (25 mM HEPES pH 7.5, 150 mM NaCl, 10 mM MgCl2). […] Binding affinity (Kd value) was calculated based on the degree of fluorescent shift of the protein with and without compound.

Chain of Ba/F3_KRAS^G12D cells (P01116 whole entry G12D): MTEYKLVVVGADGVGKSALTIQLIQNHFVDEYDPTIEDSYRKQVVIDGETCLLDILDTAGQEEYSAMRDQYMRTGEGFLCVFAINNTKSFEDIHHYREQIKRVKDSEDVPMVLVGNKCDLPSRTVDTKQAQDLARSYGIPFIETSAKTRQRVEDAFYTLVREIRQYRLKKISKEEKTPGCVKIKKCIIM

Row | SMILES | GI50 (Ba/F3_KRAS^G12D cells) [µM] | pKd [1]
1 | N#Cc1cc2c(N3CC4CCC(C3)N4)nc(OC[C@@]34CCCN3C[C@H](F)C4)nc2c(F)c1-c1cc(O)cc2cccc(Cl)c12 (single isomer, unassigned) [Compound 120] | < 0.5 | > 6.30
2 | CCc1cccc2cc(O)cc(-c3c(Cl)cc4c(N5CC6CCC(C5)N6)nc(OC[C@@]56CCCN5C[C@H](F)C6)nc4c3F)c12 (single isomer, unassigned) [Compound 133] | < 0.5 | > 6.30
3 | CCc1cccc2cc(O)cc(-c3c(Cl)cc4c(N5CC6CCC(C5)N6)nc(OC[C@@]56CCCN5C[C@H](F)C6)nc4c3F)c12 (single isomer, unassigned) [Compound 134] | 0.5 to 5 | < 5.30
4 | Oc1cc(-c2c(Cl)cc3c(N4CC5CCC(C4)N5)nc(OC[C@@]45CCCN4C[C@H](F)C5)nc3c2F)c2c(Cl)c(F)ccc2c1 (single isomer, unassigned) [Compound 138] | < 0.5 | > 6.30
5 | Oc1cc(-c2c(Cl)cc3c(N4CC5CCC(C4)N5)nc(OC[C@@]45CCCN4C[C@H](F)C5)nc3c2F)c2c(Cl)c(F)ccc2c1 (single isomer, unassigned) [Compound 139] | < 0.5 | > 6.30
6 | C#Cc1c(F)ccc2cc(O)cc(-c3c(Cl)cc4c(N5CC6CCC(C5)N6)nc(OC[C@@]56CCCN5C[C@H](F)C6)nc4c3F)c12 (single isomer, unassigned) [Compound 154] | < 0.5 | > 6.30
7 | CN1CCC[C@H]1COc1nc(N2CCNCC2)c2cc(Cl)c(-c3cc(O)cc4ccccc34)c(F)c2n1 [Compound 1] | 0.5 to 5 | < 5.30
8 | CN1CCC[C@H]1COc1nc(N2CC3CCC(C2)N3)c2cc(Cl)c(-c3cc(O)cc4ccccc34)c(F)c2n1 [Compound 2] | 0.5 to 5 | > 6.30
9 | C[C@H]1CNCCN1c1nc(OC[C@@H]2CCCN2C)nc2c(F)c(-c3cc(O)cc4ccccc34)c(Cl)cc12 [Compound 3] | 0.5 to 5 | < 5.30
10 | CN1CCC[C@H]1COc1nc(N2CC3CCC(C2)N3)c2cc(Cl)c(-c3c(O)cccc3F)c(F)c2n1 [Compound 4] | > 5 | 5.30 to 6.30
11 | CN(C)CCCOc1nc(N2CC3CCC(C2)N3)c2cc(Cl)c(-c3cc(O)cc4ccccc34)c(F)c2n1 [Compound 5] | 0.5 to 5 | 5.30 to 6.30
12 | CN(C)CCCOc1nc(N2CC3CCC(C2)N3)c2cc(Cl)c(-c3cccc4cccc(Cl)c34)c(F)c2n1 [Compound 6] | 0.5 to 5 | < 5.30
13 | CN1CCC[C@H]1COc1nc(N2CC3CCC(C2)N3)c2cc(Cl)c(-c3cccc4cccc(Cl)c34)c(F)c2n1 [Compound 7] | 0.5 to 5 | < 5.30
14 | CN(C)CCCOc1nc(N2CC3CCC(C2)N3)c2cc(Cl)c(-c3c(O)cccc3F)c(F)c2n1 [Compound 8] | > 5 | < 5.30
15 | CN1CCC[C@H]1COc1nc(N2CC3CCCC(C2)N3)c2cc(Cl)c(-c3cc(O)cc4cccc(Cl)c34)c(F)c2n1 [Compound 11] | 0.5 to 5 | 5.30 to 6.30
16 | CN1CCC[C@H]1COc1nc(N2CCNC(CC(N)=O)C2)c2cc(Cl)c(-c3cc(O)cc4ccccc34)c(F)c2n1 (stereo partly drawn) [Compound 12] | > 5 | < 5.30
17 | Nc1cccc(F)c1-c1c(Cl)cc2c(N3CCNCC3)nc(OCC34CCCN3CCC4)nc2c1F [Compound 14] | > 5 | < 5.30
18 | CNC1CCN(c2nc(OC[C@@H]3CCCN3C)nc3c(F)c(-c4cc(O)cc5cccc(Cl)c45)c(Cl)cc23)C1 (stereo partly drawn) [Compound 16] | 0.5 to 5 | < 5.30
19 | CN1CCC[C@H]1COc1nc(N2CC3(CNC3)C2)c2cc(Cl)c(-c3cc(O)cc4cccc(Cl)c34)c(F)c2n1 [Compound 17] | > 5 | < 5.30
20 | CN1CCC[C@H]1COc1nc(N2CCC3NCC32)c2cc(Cl)c(-c3cc(O)cc4cccc(Cl)c34)c(F)c2n1 (stereo partly drawn) [Compound 18] | 0.5 to 5 | < 5.30
21 | CN1CCC[C@H]1COc1nc(N2CC3(CCNC3)C2)c2cc(Cl)c(-c3cc(O)cc4cccc(Cl)c34)c(F)c2n1 [Compound 19] | > 5 | < 5.30

Row | SMILES | GI50 (Ba/F3_KRAS^G12D cells) [µM] | pKd [1]
22 | C[C@@H]1CN(c2nc(OC[C@@H]3CCCN3C)nc3c(F)c(-c4cc(O)cc5cccc(Cl)c45)c(Cl)cc23)[C@@H](C)CN1 [Compound 21] | 0.5 to 5 | < 5.30
23 | C[C@H]1CNCCN1c1nc(OC[C@@H]2CCCN2C)nc2c(F)c(-c3cc(O)cc4cccc(Cl)c34)c(Cl)cc12 [Compound 22] | 0.5 to 5 | < 5.30
24 | CN1CCC[C@H]1COc1nc(N2CCNCC23CC3)c2cc(Cl)c(-c3cc(O)cc4cccc(Cl)c34)c(F)c2n1 [Compound 23] | 0.5 to 5 | 5.30 to 6.30
25 | CN1CCC[C@H]1COc1nc(N2C[C@H]3NCC[C@H]32)c2cc(Cl)c(-c3cc(O)cc4cccc(Cl)c34)c(F)c2n1 [Compound 25] | 0.5 to 5 | < 5.30
26 | CN1CCC[C@H]1COc1nc(N2CC3CCC(C2)N3)c2cc(Cl)c(-c3nc(N)cc4ccccc34)c(F)c2n1 [Compound 27] | 0.5 to 5 | < 5.30
27 | Fc1c(-c2cccc3cccc(Cl)c23)c(Cl)cc2c(N3CCNCC3)nc(OCC34CCCN3CCC4)nc12 [Compound 28] | < 0.5 | < 5.30
28 | Oc1cc(-c2c(Cl)cc3c(N4CCNCC4)nc(OCC45CCCN4CCC5)nc3c2F)c2ccccc2c1 [Compound 29] | 0.5 to 5 | < 5.30
29 | CN1CCC[C@H]1COc1nc(N2CC3CCC(C2)N3)c2cc(Cl)c(-c3c(N)cccc3F)c(F)c2n1 [Compound 31] | 0.5 to 5 | < 5.30
30 | Nc1cccc(F)c1-c1c(Cl)cc2c(N3CC4CCC(C3)N4)nc(OCC34CCCN3CCC4)nc2c1F [Compound 32] | > 5 | 5.30 to 6.30
31 | Oc1cc(-c2c(Cl)cc3c(N4C5CCC4CNC5)nc(OCC45CCCN4CCC5)nc3c2F)c2ccccc2c1 [Compound 33] | 0.5 to 5 | > 6.30
32 | CN1CC(F)(F)CC1COc1nc(N2CC3CCC(C2)N3)c2cc(Cl)c(-c3cc(O)cc4cccc(Cl)c34)c(F)c2n1 (stereo not drawn) [Compound 35] | 0.5 to 5 | 5.30 to 6.30
33 | C[C@@H]1CN(c2nc(OCC3CN(C)C3)nc3c(F)c(-c4cc(O)cc5ccccc45)c(Cl)cc23)[C@@H](C)CN1 [Compound 36] | 0.5 to 5 | < 5.30
34 | CN(C)C1CN(c2nc(N3CC4CCC(C3)N4)c3cc(Cl)c(-c4cc(O)cc5ccccc45)c(F)c3n2)C1 [Compound 39] | 0.5 to 5 | < 5.30
35 | CN1CC2CN(c3nc(N4CC5CCC(C4)N5)c4cc(Cl)c(-c5cc(O)cc6ccccc56)c(F)c4n3)CC2C1 (stereo not drawn) [Compound 40] | 0.5 to 5 | < 5.30
36 | CN1CCC2(CC1)CCN(c1nc(N3CC4CCC(C3)N4)c3cc(Cl)c(-c4cc(O)cc5ccccc45)c(F)c3n1)C2 [Compound 41] | 0.5 to 5 | < 5.30
37 | CN1CCC2CCN(c3nc(N4CC5CCC(C4)N5)c4cc(Cl)c(-c5cc(O)cc6ccccc56)c(F)c4n3)CC21 (stereo not drawn) [Compound 42] | 0.5 to 5 | < 5.30
38 | CN1CCC2CN(c3nc(N4CC5CCC(C4)N5)c4cc(Cl)c(-c5cc(O)cc6ccccc56)c(F)c4n3)CC2C1 (stereo not drawn) [Compound 43] | 0.5 to 5 | < 5.30
39 | CN1CCC2(CCN(c3nc(N4CC5CCC(C4)N5)c4cc(Cl)c(-c5cc(O)cc6ccccc56)c(F)c4n3)C2)C1 (stereo not drawn) [Compound 44] | 0.5 to 5 | < 5.30
40 | CN1CC2(CCN(c3nc(N4CC5CCC(C4)N5)c4cc(Cl)c(-c5cc(O)cc6ccccc56)c(F)c4n3)CC2)C1 [Compound 45] | 0.5 to 5 | < 5.30
41 | Oc1cc(-c2c(Cl)cc3c(N4CC5CCC(C4)N5)nc(OCCN4CCC(O)C4)nc3c2F)c2ccccc2c1 (stereo not drawn) [Compound 46] | > 5 | 5.30 to 6.30
42 | Cc1cccc2cc(O)cc(-c3c(Cl)cc4c(N5CC6CCC(C5)N6)nc(OC[C@@]56CCCN5C[C@H](F)C6)nc4c3F)c12 [Compound 47] | < 0.5 | > 6.30
